Source: ChEMBL document CHEMBL1614632, “Trend analysis of a database of intravenous pharmacokinetic parameters in humans for 670 drug compounds” (Drug Metab Dispos, 2008)

Tests used:
clinical [1] = details: human, in vivo, iv, CL
clinical [2] = details: human, in vivo, iv, t1/2
clinical [3] = details: human, in vivo, iv
clinical [4] = details: human, in vivo, iv, Vdss

SMILES	clearance (clinical [1]) [mL/min/kg]	half-life (clinical [2]) [h]	MRT (clinical [3]) [h]	Vd (clinical [4]) [L/kg]
COc1cc2nc(N3CCN(C(=O)C4CCCO4)CC3)nc(N)c2cc1OC (stereo unspecified) [TERAZOSIN]	1.1	9	–	–
NC[C@@H]1CC[C@@H](N)[C@@H](O[C@H]2[C@H](O)[C@@H](O[C@H]3O[C@H](CO)[C@@H](O)[C@H](N)[C@H]3O)[C@H](N)C[C@@H]2N)O1 [DIBEKACIN]	0.8	–	2.7	–
CCCC(CCC)C(=O)O [VALPROIC ACID]	0.16	12	–	0.14
C[C@]12CC[C@@H]3c4ccc(O)cc4CC[C@H]3[C@@H]1CC[C@@H]2O [ESTRADIOL]	30	1.7	0.7	–
CO[C@H]1/C=C/O[C@@]2(C)Oc3c(C)c(O)c4c(O)c(c(/C=N/N5CCN(C)CC5)c(O)c4c3C2=O)NC(=O)/C(C)=C\C=C\[C@H](C)[C@H](O)[C@@H](C)[C@@H](O)[C@@H](C)[C@H](OC(C)=O)[C@@H]1C [RIFAMPIN]	3.5	–	4.6	0.97
NC12CC3CC(CC(C3)C1)C2 [AMANTADINE]	4.8	16	23	–
NCCCC[C@H](N[C@@H](CCc1ccccc1)C(=O)O)C(=O)N1CCC[C@H]1C(=O)O [LISINOPRIL ANHYDROUS]	1.2	–	–	–
COC(=O)O[C@@]12CO[C@@H]1C[C@H](O)[C@@]1(C)C(=O)[C@H](OC(C)=O)C3=C(C)[C@@H](OC(=O)[C@H](O)[C@@H](NC(=O)c4ccccc4)c4ccccc4)C[C@@](O)([C@@H](OC(=O)c4ccccc4)[C@H]21)C3(C)C [BMS-188797]	8.6	–	13	6.9
CCN(CC)C(=O)/C(C#N)=C/c1cc(O)c(O)c([N+](=O)[O-])c1 [ENTACAPONE]	12	–	0.38	0.27
C[C@@H]1C[C@H]2[C@@H]3CCC4=CC(=O)C=C[C@]4(C)[C@@]3(F)[C@@H](O)C[C@]2(C)[C@@]1(O)C(=O)CO [DEXAMETHASONE]	3.3	–	–	–
O=C(N[C@H](CO)[C@H](O)c1ccc([N+](=O)[O-])cc1)C(Cl)Cl [CHLORAMPHENICOL]	2.4	4.6	6.5	–
CCC[C@@H]1C[C@@H](C(=O)N[C@@H]([C@H]2O[C@H](SC)[C@H](O)[C@@H](O)[C@H]2O)[C@H](C)Cl)N(C)C1 [CLINDAMYCIN]	4.5	–	2.9	–
CCc1nn(CCCN2CCN(c3cccc(Cl)c3)CC2)c(=O)n1CCOc1ccccc1 [NEFAZODONE]	7.5	1.2	1.1	–
COc1ccc(C(CN(C)C)C2(O)CCCCC2)cc1 (stereo unspecified) [VENLAFAXINE]	14	5	5.2	–
CN1CCN2c3ncccc3Cc3ccccc3C2C1 (stereo unspecified) [MIRTAZAPINE]	8	–	8.8	4.2
C=CC1=C(C(=O)O)N2C(=O)[C@@H](NC(=O)/C(=N\OCC(=O)O)c3csc(N)n3)[C@H]2SC1 [CEFIXIME]	1	3.2	–	0.24
CN(Cc1cnc2nc(N)nc(N)c2n1)c1ccc(C(=O)N[C@@H](CCC(=O)O)C(=O)O)cc1 [METHOTREXATE]	2.1	–	3.4	0.43
CNCC[C@@H](Oc1ccccc1C)c1ccccc1 [ATOMOXETINE]	9.3	5.2	1.5	–
CC1CCN(CCCC(=O)c2ccc(F)cc2)CC1 [MELPERONE]	46	–	5	–
CN(C)CCCN1c2ccccc2CCc2ccc(Cl)cc21 [CLOMIPRAMINE]	8.2	–	26	13
O=C1Nc2ccc(Cl)cc2C(c2ccccc2Cl)=NC1O (stereo unspecified) [LORAZEPAM]	1	17	22	–
C[C@H](CCc1ccccc1)NC[C@H](O)c1ccc(O)c(C(N)=O)c1 [DILEVALOL]	29	3.3	2.8	–
CC(C)NCC(O)COc1ccc(COCCOC(C)C)cc1 (stereo unspecified) [BISOPROLOL]	3.7	10	–	2.4
C[C@@H](O)[C@H]1C(=O)N2C(C(=O)O)=C(SCCN=CN)C[C@H]12 [IMIPENEM ANHYDROUS]	3	0.95	1.3	–

SMILES	clearance (clinical [1]) [mL/min/kg]	half-life (clinical [2]) [h]	MRT (clinical [3]) [h]	Vd (clinical [4]) [L/kg]
CN(C)[C@@H]1C(O)=C(C(N)=O)C(=O)[C@@]2(O)C(O)=C3C(=O)c4c(O)cccc4[C@@](C)(O)[C@H]3C[C@@H]12 [TETRACYCLINE]	1.5	–	12	–
Cc1ncc2n1-c1ccc(Cl)cc1C(c1ccccc1F)=NC2 [MIDAZOLAM]	5.3	3.1	3.5	–
CCOC(=O)c1ncn2c1CN(C)C(=O)c1cc(F)ccc1-2 [FLUMAZENIL]	16	0.78	1	–
C[C@H]1C[C@H]2[C@@H]3CCC4=CC(=O)C=C[C@]4(C)[C@@]3(F)[C@@H](O)C[C@]2(C)[C@@]1(O)C(=O)CO [BETAMETHASONE]	2.8	–	–	–
C/C=C1\NC(=O)[C@H]2CSSCC/C=C/[C@H](CC(=O)N[C@H](C(C)C)C(=O)N2)OC(=O)[C@H](C(C)C)NC1=O [ROMIDEPSIN]	7.4	11	2.6	–
CC(CCc1ccccc1)NCC(O)c1ccc(O)c(C(N)=O)c1 (stereo unspecified) [LABETALOL]	23	4.4	–	–
O=C(O[C@H]1CN2CCC1CC2)N1CCc2ccccc2[C@@H]1c1ccccc1 [SOLIFENACIN]	–	52	65	8.2
CCN1CCN(C(=O)N[C@@H](C(=O)N[C@@H]2C(=O)N3[C@@H]2SC(C)(C)[C@@H]3C(=O)O)c2ccccc2)C(=O)C1=O [PIPERACILLIN]	–	0.96	1.1	0.27
CC[C@H]1OC(=O)[C@H](C)[C@@H](O[C@H]2C[C@@](C)(OC)[C@@H](O)[C@H](C)O2)[C@H](C)[C@@H](O[C@@H]2O[C@H](C)C[C@H](N(C)C)[C@H]2O)[C@](C)(O)C[C@@H](C)CN(C)[C@H](C)[C@@H](O)[C@]1(C)O [AZITHROMYCIN]	10	69	57	–
CC(C)NCC(O)COc1cccc2[nH]ccc12 (stereo unspecified) [PINDOLOL]	–	2.2	2.6	1.2
CCCc1nn(C)c2c(=O)[nH]c(-c3cc(S(=O)(=O)N4CCN(C)CC4)ccc3OCC)nc12	–	3.9	2.6	1.4
COC(=O)C1=C(C)NC(C)=C(C(=O)OCCN(C)Cc2ccccc2)C1c1cccc([N+](=O)[O-])c1 (stereo unspecified) [NICARDIPINE]	–	4.1	1.5	1
Cc1nc2c([nH]1)-c1ccccc1N(C(=O)c1ccc(NC(=O)c3ccccc3-c3ccccc3)cc1)CC2 [CONIVAPTAN]	–	6.7	4.2	0.76
CN(C)CCC(c1ccc(Cl)cc1)c1ccccn1 (stereo unspecified) [CHLORPHENIRAMINE]	2.5	–	22	3.3
CN1CCC[C@H]1c1cccnc1 [NICOTINE]	18	2	2.4	–
CN1C(C(=O)Nc2ccccn2)=C(O)c2sccc2S1(=O)=O [TENOXICAM]	0.03	67	92	–
CN(CCOc1ccc(CC2SC(=O)NC2=O)cc1)c1ccccn1 (stereo unspecified) [ROSIGLITAZONE]	0.65	3.9	–	–
C=CCc1ccccc1OCC(O)CNC(C)C (stereo unspecified) [ALPRENOLOL]	15	2.5	3.6	–
O=C(NCC1CCCCN1)c1cc(OCC(F)(F)F)ccc1OCC(F)(F)F (stereo unspecified) [FLECAINIDE]	–	12	21	6.1
CN(C)CCCC1(c2ccc(F)cc2)OCc2cc(C#N)ccc21 (stereo unspecified) [CITALOPRAM]	4.3	33	47	–
CNC1=Nc2ccc(Cl)cc2C(c2ccccc2)=[N+]([O-])C1 [CHLORDIAZEPOXIDE]	–	8.3	11	0.25
O=c1[nH]cnc2c1ncn2[C@H]1CC[C@@H](CO)O1 [DIDANOSINE]	11	1.4	1.2	–
O=c1[nH]c2ccccc2n1CCCN1CCC(n2c(=O)[nH]c3cc(Cl)ccc32)CC1 [DOMPERIDONE]	9.5	–	6	3.4
NCC1(CC(=O)O)CCCCC1 [GABAPENTIN]	1.7	–	7	0.71
